Literature values as cited in patent US20250108061A1, “METHOD FOR TREATING ENDOMETRIOSIS AND PROVIDING EFFECTIVE CONTRACEPTION” (CHEMO RESEARCH, S.L., priority 2021, published 2025).

Tests used:
women [1] = test system: women
women [2] = settings: at high dosages (5-15 mg/daily)

Row | Structure (SMILES) | ovulation inhibition / ovarian activity (women [1]; 2 mg daily) | dosage necessary for ovulation inhibition (women [1]; given continuously over 28 days) | androgenic side effects (women [2])
1 | C[C@]12CCC3=C4CCC(=O)C=C4CC[C@H]3[C@@H]1CC[C@@]2(O)CC#N [DNG, Dienogest] | provides ovulation inhibition, but ovarian activity is not completely suppressed |  | 
2 | C#C[C@]1(OC(C)=O)CC[C@H]2[C@@H]3CCC4=CC(=O)CC[C@@H]4[C@H]3CC[C@@]21C [NETA, norethisterone acetate] |  | 0.35 mg/daily | can produce androgenic side effects, such as acne, hirsutism, weight gain and voice changes of slight severity in some women
